The text below walks through data of patent US8962627B2, “Oxime derivatives and their use as allosteric modulators of metabotropic glutamate receptors” (Prestwick Chemical, Inc., priority 2009, dated 2015).

As a reminder, the melting point is the temperature of the solid-liquid transition.

Structures can show the parent of a compound that is named as a salt.

System in the first series: not given
Test: not given
Conditions: not given
Consider `ON=c1cc(-c2cc3cccn3cn2)oc2ccc(OCCOc3ccccc3)cc12` [Example 160, 6-(2-Phenoxy-ethoxy)-2-pyrrolo[1,2-c]pyrimidin-3-yl-chromen-4-one oxime], for which the melting point fell in the range of 210 to 215 °C.

For the next series, the target named is T1, human mGluR4 transiently over-expressed in HEK-293 cells (Homo sapiens, UniProt Q14833).
T1 construct: expressed in transfected cells; host or cells: HEK-293 cells, transient co-transfection by electroporation
T1 sequence (Q14833 33-912): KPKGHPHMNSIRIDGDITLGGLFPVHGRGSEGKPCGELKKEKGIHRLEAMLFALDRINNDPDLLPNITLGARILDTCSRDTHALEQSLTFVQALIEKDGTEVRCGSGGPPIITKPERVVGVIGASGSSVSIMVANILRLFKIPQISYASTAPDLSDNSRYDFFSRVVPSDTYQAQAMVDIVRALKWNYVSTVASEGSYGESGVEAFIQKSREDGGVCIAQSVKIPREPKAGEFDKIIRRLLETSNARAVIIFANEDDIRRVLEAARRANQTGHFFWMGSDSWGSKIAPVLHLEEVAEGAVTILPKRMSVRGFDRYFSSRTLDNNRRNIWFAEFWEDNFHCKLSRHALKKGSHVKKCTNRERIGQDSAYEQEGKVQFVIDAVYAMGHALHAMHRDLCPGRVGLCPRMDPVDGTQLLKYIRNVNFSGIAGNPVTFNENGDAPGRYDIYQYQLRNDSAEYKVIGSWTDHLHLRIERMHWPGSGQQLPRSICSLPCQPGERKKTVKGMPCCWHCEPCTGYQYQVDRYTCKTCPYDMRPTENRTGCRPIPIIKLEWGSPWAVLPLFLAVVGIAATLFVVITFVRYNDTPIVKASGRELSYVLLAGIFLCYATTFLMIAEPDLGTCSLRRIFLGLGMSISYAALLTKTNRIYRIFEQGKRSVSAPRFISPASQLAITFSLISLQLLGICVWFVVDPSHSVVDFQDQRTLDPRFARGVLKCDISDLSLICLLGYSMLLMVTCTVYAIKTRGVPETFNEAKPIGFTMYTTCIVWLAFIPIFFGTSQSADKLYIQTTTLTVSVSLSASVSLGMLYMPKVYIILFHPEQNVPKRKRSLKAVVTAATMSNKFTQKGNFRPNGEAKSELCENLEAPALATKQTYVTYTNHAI
The experiment in a line: Human mGluR4 positive allosteric modulator evaluation using Ca++ functional assay. In kind it is cell-based. The conditions noted are these: HEK-293 cells co-transfected with hmGluR4 and chimeric G protein; EC10 glutamate; intracellular calcium (Fluo4AM); read-out: mean EC50 of agonist/positive allosteric modulator activity on mGluR4. As to the method: Human mGluR4 Positive Allosteric Modulator Evaluation Using Ca^++ Functional Assay
Compounds of the present invention were tested successively for their agonist and positive allosteric modulator activities on human mGluR4 transiently over-expressed in HEK-293 cells. They exert agonist activity if, by themselves in absence of the endogenous glutamate, they are able to activate mGluR4; and they exert positive allosteric modulator activity if they increase the action of the endogenous glutamate.
Cell Culture and Transfection
HEK-293 cells were maintained in Modified Eagle's Medium supplemented with 10% Foetal Calf Serum, 1% Penicillin/Streptomycin and 1% non essential amino acids at 37° C./5% CO2.
Cells were co-transfected by electroporation with two DNA plasmids encoding hmGluR4 and a chimeric G protein allowing redirection of the activation signal to intracellular calcium pathway. Cells were plated after transfection onto polyornithine coated, clear bottom, black-walled, 96-well plates and cultured for 24 h.
Calcium Assay EC50 Determination
Receptor activity was detected by changes in intracellular calcium measured using the fluorescent Ca^2+ sensitive dye, Fluo4AM (Molecular Probes).
The day of the assay, medium was aspirated and replaced during 3 hours by medium without serum supplemented with 1% Glutamax, 1% Penicillin/Streptomycin and 1% non essential amino acids. Then, cells were washed with freshly prepared buffer B (HBSS 1×(PAA), Hepes 20 mM, MgSO4-7H2O 1 mM, Na2CO3 3.3 mM, CaCl2-2H2O 1.3 mM, 0.5% BSA, Probenecid 2.5 mM) and loaded at 37° C. in 5% CO2 for 1.5 hours with buffer B containing 1 μM Fluo4AM 0.1 mg/mL Pluronic Acid, 7 μg/mL Glutamate Pyruvate Transaminase and 2 mM sodium pyruvate. Afterwards cells were washed twice with buffer B and 50 μL of this buffer were added to each well. Addition of compounds and intracellular Ca^2+ measurements (excitation 485 nm, emission 525 nm) were performed by the fluorescence microplate reader FlexStation (Molecular Devices).
Agonist and positive allosteric modulator activities of compounds were consecutively evaluated on the same cells plate. Agonist activity was first tested during 60 s with the addition of compound alone on the cells. Then, the cells were stimulated by an EC10 glutamate concentration and fluorescence recorded for additional 60 s. EC10 glutamate concentration is the concentration giving 10% of the maximal glutamate response. Agonist and/or positive allosteric modulator activity(ies) were evaluated in comparison to basal signal evoked by EC10 glutamate alone.
For EC50 determination, a dose-response test was performed using 6 to 9 concentrations of each compound of the invention. Dose-response curves were fitted using the sigmoidal dose-response (variable slope) analysis in GraphPad Prism program (Graph Pad Inc) and EC50 of agonist/positive allosteric modulator activity was calculated. Dose-response experiments were all performed in duplicate, two times independently.
(In general: A change in cytosolic calcium serves as a functional read-out for many receptors and channels.)
In the case of `ON=c1cc(-c2cc3cccn3cn2)oc2ccc(OCCOc3ccccc3)cc12` [Example 160, 6-(2-Phenoxy-ethoxy)-2-pyrrolo[1,2-c]pyrimidin-3-yl-chromen-4-one oxime], the EC50 was less than 1 µM.

Turning to `COn1ccc2cc(-c3cc(=NO)c4ccccc4o3)ncc21` [Example 78, 2-(1-Methoxy-1H-pyrrolo[2,3-c]pyridin-5-yl)-chromen-4-one oxime], the EC50 is less than 5 µM. The same measure, in the same setting: the result for `Cc1c(-c2cc3ccccc3cn2)oc2ccccc2c1=NO` [Example 71, 2-Isoquinolin-3-yl-3-methyl-chromen-4-one oxime] reads less than 5 µM; that for `ON=c1cc(-c2cc3cccn3cn2)oc2cccc(OCCCN3CCOCC3)c12` [Example 157, 5-(3-Morpholin-4-yl-propoxy)-2-pyrrolo[1,2-c]pyrimidin-3-yl-chromen-4-one oxime, hydrochloride], less than 5 µM. Turning to `C#Cc1ccc2c(=NO)cc(-c3cc4ccccc4cn3)oc2c1` (mixture of isomers) [Example 23, 7-ethynyl-2-isoquinolin-3-yl-chromen-4-one oxime], the EC50 was less than 1 µM. Turning to `O=C(COc1ccc2oc(-c3cc4cccn4cn3)cc(=NO)c2c1)Nc1ccc(F)cc1` [Example 150, N-(4-Fluoro-phenyl)-2-{4-hydroxyimino-2-pyrrolo[1,2-c]pyrimidin-3-yl-4H-chromen-6-yloxy}-acetamide], the EC50 was less than 1 µM. The same measure, in the same setting: the result for `ON=c1cc(-c2cc3cccn3cn2)oc2ccc(OCCCOc3cccc(F)c3)cc12` [Example 163, 6-[3-(3-Fluoro-phenoxy)-propoxy]-2-pyrrolo[1,2-c]pyrimidin-3-yl-chromen-4-one oxime] reads less than 1 µM. Still for that read-out and setting: next, `ON=c1cc(-c2cc3ccccc3cn2)oc2cc(C#Cc3ccccc3)ccc12` (mixture of isomers) [Example 20, 2-isoquinolin-3-yl-7-phenylethynyl-chromen-4-one oxime]: less than 1 µM; `ON=c1cc(-c2cc3cccn3cn2)oc2ccc(Br)cc12` (mixture of isomers) [Example 66, 6-bromo-2-Pyrrolo[1,2-c]pyrimidin-3-yl-chromen-4-one oxime]: less than 5 µM. Same read-out and setting: the result for `O=C(COc1ccc2oc(-c3cc4cccn4cn3)cc(=NO)c2c1)Nc1ccc(F)cn1` [Example 152, N-(5-Fluoro-pyridin-2-yl)-2-{4-hydroxyimino-2-pyrrolo[1,2-c]pyrimidin-3-yl-4H-chromen-6-yloxy}-acetamide] reads less than 1 µM. Consider `ON=c1cc(-c2cc3cccn3cn2)oc2ccc(OCCN3CCC(F)(F)CC3)cc12` [Example 103, hydrochloride], for which the EC50 was less than 1 µM. Still for that read-out and setting: next, `ON=c1cc(-c2cc3cccn3cn2)oc2cc(OCCN3CCOCC3)ccc12` [Example 142, 7-(2-Morpholin-4-yl-ethoxy)-2-pyrrolo[1,2-c]pyrimidin-3-yl-chromen-4-one oxime, hydrochloride]: less than 1 µM. As to `ON=c1cc(-c2cc3cccn3cn2)oc2ccc(CCCN3CCOCC3)cc12` [Example 106, 6-(3-morpholin-4-yl-propyl)-2-pyrrolo[1,2-c]pyrimidin-3-yl-chromen-4-one oxime, hydrochloride], the EC50 is less than 1 µM. With `ON=c1cc(-c2cc3cccn3cn2)oc2ccc(OCCN3C[C@@H]4C[C@H]3CO4)cc12` [Example 111, 6-[(1S,4S)-2-(2-oxa-5-aza-bicyclo[2.2.1]hept-5-yl)-ethoxy]-2-pyrrolo[1,2-c]pyrimidin-3-yl-chromen-4-one oxime, hydrochloride], the EC50 was less than 1 µM.

As to `ON=c1cc(-c2cc3cccn3cn2)oc2ccc(O)cc12` [Example 81, 6-Hydroxy-2-pyrrolo[1,2-c]pyrimidin-3-yl-chromen-4-one oxime], the EC50 is less than 1 µM. With `ON=c1cc(-c2cc3cccn3cn2)oc2ccc(/C=C\CN3CCOCC3)cc12` [Example 107], the EC50 is less than 1 µM. Same read-out and setting: the result for `COCCOc1ccc2oc(-c3cc4cccn4cn3)cc(=NO)c2c1` [Example 67, 6-methoxyethoxy-2-Pyrrolo[1,2-c]pyrimidin-3-yl-chromen-4-one oxime] reads less than 1 µM; that for `ON=c1cc(-c2cc3cccn3cn2)oc2ccc(OCCCOc3ccccc3)cc12` [Example 162, 6-(3-Phenoxy-propoxy)-2-pyrrolo[1,2-c]pyrimidin-3-yl-chromen-4-one oxime], less than 1 µM; that for `CCN1CCN(CCOc2ccc3oc(-c4cc5cccn5cn4)cc(=NO)c3c2)CC1.Cl.Cl` [Example 121, 6-[2-(4-ethyl-piperazin-1-yl-ethoxy]-2-pyrrolo[1,2-c]pyrimidin-3-yl-chromen-4-one oxime, dihydrochloride], less than 5 µM. Same read-out and setting: the result for `ON=c1cc(-c2cc3cccn3cn2)oc2ccc(OCCN3CCC(C(F)(F)F)CC3)cc12` [Example 113, 2-pyrrolo[1,2-c]pyrimidin-3-yl-6-[2-(4-trifluoromethyl-piperidin-1-yl)-ethoxy]chromen-4-one oxime, hydrochloride] reads less than 1 µM. The same measure, in the same setting: next, `CNc1cccc(C#Cc2ccc3c(=NO)cc(-c4cc5ccccc5cn4)oc3c2)c1` (mixture of isomers) [Example 51, 2-Isoquinolin-3-yl-7-{3-methylaminophenylethynyl}-chromen-4-one oxime]: less than 1 µM; `ON=c1cc(-c2cc3cccn3cn2)oc2ccc(OCCCOc3ccc(F)c(F)c3)cc12` [Example 164, 6-[3-(3,4-Difluoro-phenoxy)-propoxy]-2-pyrrolo[1,2-c]pyrimidin-3-yl-chromen-4-one oxime]: less than 1 µM; `ON=c1cc(-c2cc3cccn3cn2)oc2ccc(OCCc3ccc(F)cc3)cc12` [Example 109, 6-[2-(4-fluoro-phenyl)-ethoxy]-2-pyrrolo[1,2-c]pyrimidin-3-yl-chromen-4-one oxime, hydrochloride]: less than 1 µM. `CC1CCCN1CCOc1ccc2oc(-c3cc4cccn4cn3)cc(=NO)c2c1` (stereo not shown) [Example 92, 6-[2-(2-methyl-pyrrolidin-1-yl)-ethoxy]-2-pyrrolo[1,2-c]pyrimidin-3-yl-chromen-4-one oxime, hydrochloride]: the EC50 is less than 5 µM. Still for that read-out and setting: the result for `C[C@@H]1CN(CCOc2ccc3oc(-c4cc5cccn5cn4)cc(=NO)c3c2)C[C@H](C)O1` [Example 112, 6-[2-(cis-2,6-dimethyl-morpholin-4-yl)-ethoxy]-2-pyrrolo[1,2-c]pyrimidin-3-yl-chromen-4-one oxime, hydrochloride] reads less than 1 µM; that for `ON=c1cc(-c2cc3ccn(O)c3cn2)oc2ccccc12` [Example 76, 2-(1-Hydroxy-7H-pyrrolo[2,3-c]pyridin-5-yl)-chromen-4-one oxime], less than 5 µM; that for `ON=c1cc(-c2cc3cccn3cn2)oc2ccc(OCCn3ccnc3)cc12` [Example 105, 6-(2-imidazol-1-O-ethoxy)-2-pyrrolo[1,2-c]pyrimidin-3-yl-chromen-4-one oxime], less than 1 µM. On the same count and under the same terms, next, `ON=c1cc(-c2cc3ccccc3cn2)oc2ccc(C3CC3)cc12` (mixture of isomers) [Example 34, 6-cyclopropyl-2-isoquinolin-3-yl-chromen-4-one oxime]: less than 5 µM. Consider `COc1ccc(C#Cc2ccc3c(=NO)cc(-c4cc5ccccc5cn4)oc3c2)cc1` (mixture of isomers) [Example 31, 2-isoquinolin-3-yl-7-(4-methoxyphenyl)ethynyl-chromen-4-one oxime], for which the EC50 was less than 5 µM. On the same count and under the same terms, next, `ON=c1cc(-c2cc3nccn3cn2)oc2ccccc12` (mixture of isomers) [Example 73, 2-Imidazo[1,2-c]pyrimidin-7-yl-chromen-4-one oxime]: less than 1 µM; `ON=c1cc(-c2cc3cnccc3cn2)oc2ccccc12` [Example 61, 2-[2,6]Naphthyridin-3-yl-chromen-4-one oxime]: less than 1 µM; `ON=c1cc(-c2cc3ccccc3cn2)oc2cc(CCc3ccccc3)ccc12` (mixture of isomers) [Example 22, 2-isoquinolin-3-yl-7-phenethyl-chromen-4-one oxime]: less than 5 µM. As for `ON=c1cc(-c2cc3cccn3cn2)oc2ccc(OCCCOc3ccc(F)cc3)cc12` [Example 161, 6-[3-(4-Fluoro-phenoxy)-propoxy]-2-pyrrolo[1,2-c]pyrimidin-3-yl-chromen-4-one oxime], the EC50 is less than 1 µM.
